Test results reported in US12714735B2, “Herbal composition for cancer” (priority 2024, dated 2026).
≈ marks a conversion by molar mass, not a printed value. Where “and” joins values, the source holds several entries; their conditions need not be identical. Equal values may be shown once.

Experiments:
[1] = Free radical scavenging activity (antioxidant assay); type: biochemical
Text: Evaluation of in-vitro cytotoxic potential of herbal products in human Lung cancer cell line (A549) by antioxidant assay: […] These substances may have potential as cytotoxic agents for further investigation. In an embodiment, free radical scavenging activity as per IC50 value: […]

[2] = MTT cytotoxicity assay; type: cell-based; conditions: human
Description: (§1) Human Lung carcinoma epithelial cell line, A549 cell line was obtained from the National Centre for Cell Sciences (NCCS, Pune). The cell line was cultured in DMEM (Himedia), supplemented with 10% fetal bovine serum (Sigma-Aldrich), 25 U/ml penicillin, and […] streptomycin (Himedia) at 37° ° C. in a water-saturated atmosphere of 95% air and 5% CO2. The experiments were repeated three times and average OD (absorbance values) were taken and plotted
8 test compounds (Wheatgrass, Ginger, Garlic, Tulsi, Green tea, Ashwagandha, 95% extract of Piperine and Turmeric) were obtained from the formulation department of Dabur Research Foundation, Sahibabad, Ghaziabad, U.P. 201010. 100 mg of the test compounds was weighed and dissolved in DMSO. After that, it was vortexed thoroughly followed by centrifugation. The clear supernatant was then used for further experimentation.
as §1, with “Cell culture Human” for “Human”, “37°” for “37° °”, “CO2.” for “CO2. The experiments were repeated three times and average OD (absorbance values) were taken and plotted”
The effect of DMSO extracts of 8 test compounds (Wheatgrass, Ginger, Garlic, Tulsi, Green tea, Ashwagandha, 95% extract of Piperine and Turmeric) on A549 human lung carcinoma epithelial cell line was observed by MTT (3-(4,5-dimethylthiazol-2-yl)-2,5-diphenyl tetrazolium bromide) assay. MTT reagent was purchased from Sigma (Darmstadt, Germany). Cells were counted on a hemocytometer and 10,000 cells/well were plated in 96 well plate in 180 μl of complete media (containing 10% of FBS).
Cells were treated with different concentrations (0.01, 0.1, 1, 10, 50, 100 μg/ml) of Wheatgrass, Ginger, Garlic, Tulsi, Green tea & Ashwagandha extracts and at concentrations (0.001, 0.01, 0.1, 1, 10 and 50 μg/ml) of 95% extract of Piperine and Turmeric for 72 hr. After the stipulated time, MTT solution (5 mg/ml) was added to each well and incubated for 3 hr. The purple-colored precipitate of formazan was dissolved in 150 μl of DMSO (Sigma-Aldrich) by proper mixing. The color absorbance of each well was recorded at 570 nm in a Bioteck microplate reader with a reference serving as blank. Then, IC50 values of DMSO extracts of 8 test compounds were calculated.
Statistical analysis MTT Data were analyzed by using Microsoft office Excel Software.

SMILES | IC 50 value (free radical scavenging) [1] [µg/mL] | % Inhibition ([1]; 1 μg/ml) [%] | % Inhibition ([1]; 10 μg/ml) | % Inhibition ([1]; 20 μg/ml) | % Inhibition ([1]; 30 μg/ml) | % Inhibition ([1]; 40 μg/ml) | % Inhibition ([1]; 50 μg/ml) | % Inhibition ([1]; 100 μg/ml) | IC50 at 72 h [2] [µM] | cytotoxicity at 72 h, 0.1 µM [2] [%] | cytotoxicity at 72 h, 1 µM [2] [%] | cytotoxicity at 72 h, 10 µM [2] [%] | cytotoxicity at 72 h, 25 µM [2] [%] | cytotoxicity at 72 h, 50 µM [2] [%]
O=C1O[C@H]([C@@H](O)CO)C(O)=C1O [Ascorbic Acid] | 37.54 (≈ 213 µM) | 2.3 | 13% and 13.2% | 24% and 24.4% | 38% and 37.6% | 51% and 50.8% | 63% and 62.6% | 90% and 90.4% | – | – | – | – | – | –
COc1cccc2c1C(=O)c1c(O)c3c(c(O)c1C2=O)C[C@@](O)(C(=O)CO)C[C@@H]3O[C@H]1C[C@H](N)[C@H](O)[C@H](C)O1 [Doxorubicin] | – | – | – | – | – | – | – | – | 9.39 | 11.7 | 19.3 | 51 | 66.2 | 69.2
